Results reported in patent US20130133650A1, “GAS-BASED TREATMENT FOR INFECTIVE DISEASE” (priority 2010, published 2013).

Assays:
M. bovis BCG = type: cell-based, Mycobacterium bovis BCG; conditions: jar flushed with gas, 1-24 hour (FIG. 5)
Mycobacterium bovis BCG = conditions: cited from earlier work
[1] = tested on: THP-1 macrophage-like cells; experiment: Viability of human macrophage-like cells following anaerobic shock (trypan blue exclusion); type: cell-based; conditions: uninfected differentiated THP-1 cells, various treatment times (FIG. 3(B))
Description: THP-1 cells were grown and induced for differentiation as above. The monolayer of differentiated macrophage-like cells was dispersed by trypsinization, after which cell suspensions were transferred to Vacutainer tubes and shocked with anaerobic gas as described for bacterial cultures. At various times, 20-microliter aliquots of suspended cells (˜10^6 cells/ml) were mixed with an equal volume of Trypan Blue staining solution (0.4% Trypan blue, Sigma Chemicals CO., St. Louis, Mo.)). Total and blue cell numbers were determined by light microscopy using a hemocytometer.
Percent of white (live) cells was plotted relative to an untreated sample.

[2] = rabbit, in vivo
[3] = tested on: M. tuberculosis H37Rv inside THP-1 macrophage-like cells; experiment: Anaerobic shock of macrophage-like cells infected with M. tuberculosis, bacterial survival; conditions: treatment for the indicated times (FIG. 3(A))

[HH] [hydrogen]
killing of bacteria on agar surface (M. bovis BCG): killed

NCCN(CCN)/[N+]([O-])=N/O [DETA-NO, diethylene-triamine-nitric oxide adduct]
effect of pretreatment on anaerobic shock-caused cell death (Mycobacterium bovis BCG; pretreatment before anaerobic shock): not blocked
duration of sustained growth arrest (Mycobacterium bovis BCG; single treatment): 72 h

[Ar] [argon]
macrophage viability (trypan blue exclusion) [1]: slightly reduced viability at long treatment times
side-effect of one-lung anaerobic shock [2]: no obvious side-effect
intracellular bacillary viability [3]: only reduced bacillary viability moderately
